Laboratory results published in patent US20210283053A1, “LIQUID FORMULATIONS OF GLUCAGON ANALOGUES” (Zealand Pharma A/S, priority 2020, published 2021).

Test system: RYGB-operated individuals with confirmed postprandial hypoglycaemia
Assay: Crossover study with liquid mixed meal test, postprandial hypoglycaemia after Roux-en-Y gastric bypass
Assay type: in vivo, human
Conditions: for time spent in level 2 hypoglycaemia (<3.1 mmol/l): n=5, placebo 31.0±5; for nadir PG: placebo 3.0±0.2; for time spent in hypoglycaemia (<3.9 mmol/l): placebo 62.0±8; for PG incremental AUC (iAUC70-240 min) after drug administration: placebo 752±19, p<0.0001
Excerpt: Postprandial hypoglycaemia is a frequent and debilitating complication following Roux-en-Y gastric bypass (RYGB), and no effective treatment exists. In a proof-of-concept study, we investigated the effects of dasiglucagon, a novel, stable glucagon analogue, on postprandial hypoglycaemia after RYGB. The primary aim of the present study was to examine the effects of two doses of dasiglucagon on the postprandial nadir plasma glucose concentration (PG) and time spent in hypoglycaemia (<3.9 mmol/l) in RYGB-operated individuals with confirmed postprandial hypoglycaemia.
Ten RYGB-operated individuals (two males, eight females; BMI 34.6 (21.8-39.0) kg/m^2; age 46 (29-67) years; HbA1c 32 (29-42) mmol/mol; time since operation 9.3 (6-11.5) years; weight loss since operation 53.9 (25.1-92.0) kg)) with confirmed symptomatic postprandial hypoglycaemia (PG<3.5 mmol/l verified by a 6-day continuous glucose monitoring) completed a double-blinded, randomised, crossover study comprising three separate treatment days, each including a standardised liquid mixed meal test (25 kJ per kg body mass; 50 E % carbohydrates, 35 E % fat and 15 E % protein). A subcutaneous injection of either placebo, 80 or 200 μg dasiglucagon (D80μg and D200μg) was administered after the postprandial PG peak, approximately 10 minutes before the projected time point where the PG returned to fasting levels using a subject-specific linear regression model. Blood sampling and assessment of hypoglycaemic symptoms, by the Edinburgh Hypoglycaemia Symptom Scale, were performed at fixed time intervals. Data were analysed using linear mixed models and Tukey's corrections model for multiple comparisons.

## Hy-HSQGTFTSDYSKYLD-Aib-ARAEEFVKWLEST-OH [Compound 1, glucagon analogue (dasiglucagon)]
80 μg subcutaneous, p>0.05
  time spent in level 2 hypoglycaemia (<3.1 mmol/l): 7 ± 5 min
80 μg subcutaneous, p=0.002
  nadir PG: 3.9 ± 0.3 mmol/L
80 μg subcutaneous, p=0.05
  time spent in hypoglycaemia (<3.9 mmol/l): 27.5 ± 12 min
80 μg subcutaneous
  PG incremental AUC (iAUC70-240 min) after drug administration: 917 ± 22 mmol·min/L
200 μg subcutaneous, five participants after placebo
  participants who experienced level 2 hypoglycaemia (<3.1 mmol/l): none
200 μg subcutaneous, p=0.01
  time spent in level 2 hypoglycaemia (<3.1 mmol/l): 0.0 ± 0 min
200 μg subcutaneous, p=0.0002
  nadir PG: 4.5 ± 0.2 mmol/L
200 μg subcutaneous, p=0.003
  time spent in hypoglycaemia (<3.9 mmol/l): 14.0 ± 9 min
200 μg subcutaneous
  PG incremental AUC (iAUC70-240 min) after drug administration: 992 ± 28 mmol·min/L
Between the three study days (placebo, 80 and 200 μg)
  changes in hypoglycaemic symptoms (Edinburgh Hypoglycaemia Symptom Scale): no significant changes
